Tests used:
Experiment in all cases: relative viability (nuclei count vs DMSO), 5 days (fraction); higher = more cells survive
Kobe2602 + Lapatinib = compound: C1=CC(=CC=C1NC(=S)NNC2=C(C=C(C=C2[N+](=O)[O-])C(F)(F)F)[N+](=O)[O-])F [Kobe2602] + CS(=O)(=O)CCNCc1ccc(-c2ccc3ncnc(Nc4ccc(OCc5cccc(F)c5)c(Cl)c4)c3c2)o1 [Lapatinib] (partner 2 µM)
Outline: (§1)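 Medians of duplicate plates are given as relative viability. That measure is the nuclei count in treated wells divided by the count in vehicle wells. Counts were taken on 4× images of lung cancer cell lines in 1536-well plates, 5 days after pin-tool dosing the day after seeding with one drug alone or a fixed anchor-drug dose plus five library-drug doses (not always all listed) in √10 steps.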

Kobe2602 + Pictilisib = compound: C1=CC(=CC=C1NC(=S)NNC2=C(C=C(C=C2[N+](=O)[O-])C(F)(F)F)[N+](=O)[O-])F [Kobe2602] + CS(=O)(=O)N1CCN(Cc2cc3nc(-c4cccc5[nH]ncc45)nc(N4CCOCC4)c3s2)CC1 [Pictilisib] (partner 1 µM)
Outline: as §1

Zosuquidar + Pictilisib = compound: O[C@@H](COc1cccc2ncccc12)CN1CCN([C@@H]2c3ccccc3[C@@H]3[C@H](c4ccccc42)C3(F)F)CC1 [Zosuquidar] + CS(=O)(=O)N1CCN(Cc2cc3nc(-c4cccc5[nH]ncc45)nc(N4CCOCC4)c3s2)CC1 [Pictilisib] (partner 1 µM)
Outline: as §1

Zosuquidar + Decitabine = compound: O[C@@H](COc1cccc2ncccc12)CN1CCN([C@@H]2c3ccccc3[C@@H]3[C@H](c4ccccc42)C3(F)F)CC1 [Zosuquidar] + Nc1ncn([C@H]2C[C@H](O)[C@@H](CO)O2)c(=O)n1 [Decitabine] (partner 2 µM)
Outline: as §1

Cell Line	relative viability (Kobe2602 + Lapatinib; first compound 0.2 µM)	relative viability (Kobe2602 + Lapatinib; first compound 0.6325 µM)	relative viability (Kobe2602 + Lapatinib; first compound 2 µM)	relative viability (Kobe2602 + Lapatinib; first compound 6.325 µM)	relative viability (Kobe2602 + Lapatinib; first compound 20 µM)	relative viability (Kobe2602 + Pictilisib; first compound 0.2 µM)	relative viability (Kobe2602 + Pictilisib; first compound 0.6325 µM)	relative viability (Kobe2602 + Pictilisib; first compound 2 µM)	relative viability (Kobe2602 + Pictilisib; first compound 6.325 µM)	relative viability (Kobe2602 + Pictilisib; first compound 20 µM)	relative viability (Zosuquidar + Pictilisib; first compound 0.01 µM)	relative viability (Zosuquidar + Pictilisib; first compound 0.03162 µM)	relative viability (Zosuquidar + Pictilisib; first compound 0.1 µM)	relative viability (Zosuquidar + Pictilisib; first compound 0.3162 µM)	relative viability (Zosuquidar + Pictilisib; first compound 1 µM)	relative viability (Zosuquidar + Decitabine; first compound 0.01 µM)	relative viability (Zosuquidar + Decitabine; first compound 0.03162 µM)	relative viability (Zosuquidar + Decitabine; first compound 0.1 µM)	relative viability (Zosuquidar + Decitabine; first compound 0.3162 µM)	relative viability (Zosuquidar + Decitabine; first compound 1 µM)
HCC-44	1	1.05	1.01	1.03	0.954	0.63	0.623	0.684	1.54	0.662	0.615	0.57	0.603	0.742	0.815	0.981	0.961	1	0.934	0.919
HCC-78	1.02	0.903	–	0.418	1.18	0.246	0.255	–	0.212	0.211	0.211	0.235	–	0.232	0.402	0.75	–	–	0.804	0.637
HCC-366	1.05	1.16	0.963	0.979	0.968	0.0894	0.176	0.0839	0.141	0.211	0.154	0.185	0.15	0.151	0.195	0.322	0.291	0.429	0.515	0.277
HCC-827	0.189	0.211	0.231	0.177	0.227	1	0.932	0.898	0.981	1.18	1.08	1.14	0.774	1.05	0.994	0.302	0.367	0.266	0.307	0.295
HOP-62	1.06	1.04	0.951	0.94	1.04	0.72	1.09	0.717	0.783	0.782	0.684	0.86	0.579	0.81	0.831	0.215	0.223	0.25	0.203	0.21
IA-LM	0.584	0.614	0.732	0.805	0.811	0.369	0.306	0.338	0.318	0.317	0.306	0.394	0.342	0.315	0.324	–	–	–	–	–
LC-2-ad	1.03	0.893	0.764	0.978	0.923	0.614	0.54	0.459	0.441	0.477	0.386	0.566	0.41	0.493	0.524	0.878	0.922	0.876	0.725	0.776
LCLC-97TM1	1.05	1.01	0.817	0.965	0.893	0.195	0.18	0.185	0.15	0.167	0.203	0.219	–	0.192	0.226	0.27	0.217	–	0.253	0.224
LCLC-103H	–	–	–	–	–	0.596	0.696	0.62	0.618	0.638	0.541	0.569	0.542	0.607	0.737	0.803	0.724	0.787	0.739	0.772

Source: the supplement of paper PMC10307832
